Measurements taken from patent US12396996B2, “Compounds, pharmaceutical compositions, and methods of their use in reversing cancer chemoresistance” (priority 2019, dated 2025).

What follows are compounds tested on HMLE-SNAIL spheroids (assay: 3-D tumor spheroid assay (Sytox/DAPI staining)). Settings: Sytox staining.
Assay type: cell-based, human
Text: FIGS. 1F-1I show the results of a 3-D tumor spheroid assay formed by the chemotherapy-resistant breast cancer cell line, HMLE-SNAIL. […] Tumor spheroids are a model of real in vivo tumors, as they form a 3-D cell mass in which the hypoxic and often nutrient depleted microenvironment at the center of the tumor is enriched with mesenchymal, chemotherapy-resistant TIC cells. […] By staining spheroids with Sytox, which stains dead cells green, and DAPI, which stains the nuclei of all cells (living or dead), total fraction of dead cells is calculated. Also, the location of dead cells within the sphere is visualized with Sytox (green) staining. The results of FIGS. 1F-1I indicate that chaetocin a selective and potent killer of inner cells of the spheroids, enriched with mesenchymal, chemotherapy-resistant TIC cells, compared to other compounds tested. FIGS. 1J-1K show the results of a tumorsphere assay performed with TICs grown on serum-free, non-adherent culture conditions. […] The results of FIGS. 1J-1K indicate that chaetocin is effective in eliminating TICs in a dose dependent-manner.
To determine whether chaetocin affects TIC death in a tumor-like environment, 3-D tumor spheroid assays were performed in the presence or absence of chaetocin. Tumor spheroids are a model of a real tumor, as they form a 3-D cell mass similar to tumors in vivo. The local microenvironment of a spheroid recapitulates many of the in vivo properties of tumor. Importantly, the hypoxic and often nutrient depleted microenvironment at the center of the tumor is favorable for converting epithelial, non-TIC, chemotherapy-sensitive cancer cells into mesenchymal, TIC-rich, chemotherapy-resistant cells. […] Pharmacological agents were added and cell viability was calculated by staining cells with Sytox, which stains dead cells green, and DAPI, which stains the nuclei of all cells (living or dead). to provide the total cell number. Using this method, the total fraction of dead cells was calculated and compared between different drug conditions. More importantly, the location of dead cells within the sphere is visualized with Sytox (green) staining. FIGS. 1G-1I show fluorescence images of tumor spheroids under control conditions (no treatment; FIG. 1G), under treatment with various experimental chemotherapeutic agents (Y-27632, LY-450139, and IWP-L6 (Wnt); FIG. 1H), and with chaetocin treatment (FIG. 1I). […] This family of kinases are thought to be important for survival of TIC cells. IWP-L6 is an inhibitor of Wnt pathway—a pathway important for TIC cell survival and formation. LY-450139 is a NOTCH pathway inhibitor. NOTCH is also important for TIC cell viability and survival. […]
For `O=C(CSc1nc2c(c(=O)n1-c1ccccc1)SCC2)Nc1ccc(-c2ccccc2)cn1` [IWP-L6], the “location of dead cells within spheroid” value was “mostly result in death of cells on the exterior of the spheroid”.
For `CC(C)[C@H](O)C(=O)N[C@@H](C)C(=O)N[C@@H]1C(=O)N(C)CCc2ccccc21` [LY-450139], the “location of dead cells within spheroid” value was “mostly result in death of cells on the exterior of the spheroid”.
In the case of `C[C@@H](N)[C@H]1CC[C@H](C(=O)Nc2ccncc2)CC1` [Y-27632], the “location of dead cells within spheroid” value is reported as “mostly result in death of cells on the exterior of the spheroid”.
